Measured values from US20190224214A1, “HUMAN GHRELIN O-ACYLTRANSFERASE INHIBITORS” (SYRACUSE UNIVERSITY, priority 2016, published 2019).
Read-outs that look alike come from different tables or passages of the source.

How the values were obtained:
[1] = target: T1, hGOAT (Homo sapiens, UniProt Q96T53); assay: fluorescence-based in vitro hGOAT activity assay (ghrelin octanoylation, HPLC readout); assay type: biochemical
T1 construct: made in house; host or cells: Sf9 insect cells (membrane fraction)
T1 sequence (Q96T53 1-435): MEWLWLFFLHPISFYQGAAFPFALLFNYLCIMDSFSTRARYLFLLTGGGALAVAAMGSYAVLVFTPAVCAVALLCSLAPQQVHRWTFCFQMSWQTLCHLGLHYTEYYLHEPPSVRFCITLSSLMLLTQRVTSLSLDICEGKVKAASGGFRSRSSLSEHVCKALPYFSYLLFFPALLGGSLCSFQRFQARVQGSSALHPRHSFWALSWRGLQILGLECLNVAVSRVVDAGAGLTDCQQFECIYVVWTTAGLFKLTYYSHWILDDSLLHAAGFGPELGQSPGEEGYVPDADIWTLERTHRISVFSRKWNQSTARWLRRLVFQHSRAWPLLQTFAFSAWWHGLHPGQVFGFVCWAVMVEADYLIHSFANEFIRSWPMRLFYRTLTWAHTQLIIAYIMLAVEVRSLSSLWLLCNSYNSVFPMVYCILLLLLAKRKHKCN
Procedure: hGOAT was expressed and enriched in insect (Sf9) cell membrane fractions using a previously published procedure.
Peptide substrates were labeled with acrylodan on a cysteine thiol and HPLC purified as previously reported.
hGOAT activity assays were performed using a modification of previously reported protocols. For each assay, membrane fraction from Sf9 cells expressing hGOAT was thawed on ice and passed through an 18-gauge needle 10 times to homogenize. Assays were performed with ˜100 μg of membrane protein, as determined by Bradford assay. Membrane fraction was preincubated with 1 μM methoxy arachadonyl fluorophosphonate (MAFP) and inhibitor or vehicle as indicated in 50 mM HEPES pH 7.0 for 30 minutes at room temperature. Reactions were initiated with the addition of 500 µM octanoyl CoA and 1.5 μM fluorescently-labeled ghrelin mimetic, GSSFLCAcrylodan, for a total volume of 50 μL, and were incubated for 3 hours at room temperature in the dark. Reactions were stopped with the addition of 50 μL of 20% acetic acid in isopropanol, and solutions were clarified by protein precipitation with 16.7 μL of 20% trichloroacetic acid, followed by centrifugation (1,000×g, 1 minute). The supernatant was then analyzed by reverse phase HPLC, as previously described. Data reported are the average of three independent determinations, with error bars representing one standard deviation.
For inhibition experiments, reactions were performed and analyzed as described in the presence of either inhibitor or vehicle (DMSO or ethanol) as appropriate. The percent activity at each inhibitor concentration calculated from HPLC data using equations 1 and 2: […]
To determine the IC50 value, the plot of % activity versus [inhibitor] was fit to equation 3, with % activity0 denoting hGOAT activity in the presence of the vehicle alone: […]

[2] = target: T1, hGOAT; assay: Inhibitor reversibility assay (10-fold dilution after pretreatment at 3x IC50); assay type: biochemical; details: pretreatment at 3x IC50, then 10-fold dilution
Procedure: The reversibility of hGOAT inhibition by the α-cyanoenone compounds 3 and 9 was determined by enzyme pretreatment with each inhibitor at three times the measured IC50 concentration, followed by a 10-fold dilution into either reaction buffer or buffer containing the same inhibitor concentration as the pretreatment.
Undiluted homogenized membrane protein fraction containing hGOAT (protein concentration ˜7 μg/μL) was incubated with 10 μM MAFP and 3×IC50 of inhibitor or equal volume vehicle (DMSO or ethanol) for 30 minutes at room temperature. […] Reactions were incubated for 3 hours at room temperature in the dark and then analyzed as described above.

[3] = read-out: IC50, inhibition of hGOAT activity
[4] = hGOAT activity, individual trials, read-out: IC50 (individual trials)
[5] = hGOAT activity, averaged, read-out: IC50 (averaged)
[6] = unit inferred, read-out: IC50, inhibition of hGOAT

CCNC(=O)[C@]12CCC(C)(C)C[C@H]1[C@H]1C(=O)C=C3[C@@]4(C)C=C(C#N)C(=O)C(C)(C)[C@@H]4CC[C@@]3(C)[C@]1(C)CC2 [CDDO-EA]
IC50 [1, 3]: 8 ± 4 µM | reversibility of hGOAT inhibition [2]: reversible hGOAT inhibition

CC1(C)CC[C@]2(C(=O)n3ccnc3)CC[C@]3(C)[C@H](C(=O)C=C4[C@@]5(C)C=C(C#N)C(=O)C(C)(C)[C@@H]5CC[C@]43C)[C@@H]2C1 [CDDO-Im, 1[2-cyano-3,12-dioxooleana-1,9-dien-28-oyl]imidazole, reference compound]
IC50 [1, 3]: 38 ± 6 µM

COC(=O)[C@]12CCC(C)(C)C[C@H]1[C@H]1C(=O)C=C3[C@@]4(C)C=C(C#N)C(=O)C(C)(C)[C@@H]4CC[C@@]3(C)[C@]1(C)CC2 [CDDO-Me, methyl 2-cyano-3,12-dioxooleana-1,9(11)dien-28-oate, reference compound]
inhibition of hGOAT octanoylation activity (in words) [1]: exhibits inhibitory activity against hGOAT

CC1(C)CC[C@]2(C(=O)O)CC[C@]3(C)[C@H](C(=O)C=C4[C@@]5(C)C=C(C#N)C(=O)C(C)(C)[C@@H]5CC[C@]43C)[C@@H]2C1 [Compound 5, reference compound]
inhibition of hGOAT octanoylation activity (in words) [1]: lack of inhibition activity

C[C@@]12CCC[C@H]1[C@@H]1CC[C@H]3CC(=O)C(C#N)=C[C@]3(C)[C@H]1CC2 [Compound 9, (5S,8S,9S,10S,13S,14S)-10,13-dimethyl-3-oxo-4,5,6,7,8,9,10,11,12,13,14,15,16,17-tetradecahydro-3H-cyclopenta[a]phenanthrene-2-carbonitrile]
IC50 [1, 4]: 7 ± 3 µM | IC50 [1, 3]: 8 ± 2 µM | enhancement of inhibitor potency against hGOAT by the steroid scaffold ([1]; α-cyanoenone 9 versus 16): ~150 fold | reversibility of hGOAT inhibition [2]: reversible hGOAT inhibition

C[C@@]12CCC[C@H]1[C@@H]1CC[C@H]3CC(=O)C(Br)=C[C@]3(C)[C@H]1CC2 [Compound 10, (5 S,8S,9S,10S,13S,14S)-10,13-dimethyl-3-oxo-4,5,6,7,8,9,10,11,12,13,14,15,16,17-tetradecahydro-3H-cyclopenta[a]phenanthrene-2-bromide]
IC50 [1, 5]: 83 ± 29 µM | IC50 [1, 4]: 84 ± 35 µM | melting point: 111 to 116 °C

C[C@@]12CCC[C@H]1[C@@H]1CC[C@H]3CC(=O)C=C[C@]3(C)[C@H]1CC2 [Compound 11, (2R,5S,8S,9S,10S,13S,14S)-10,13-dimethyl-4,5,6,7,8,9,10,11,12,13,14,15,16,17-tetradecahydro-3H-cyclopenta[a]phenanthren-3-one]
IC50 [1, 5]: 166 ± 58 µM | IC50 [1, 4]: 201 ± 107 µM | IC50 [1, 6]: 170 ± 60 µM

C[C@@]12CCC[C@H]1[C@@H]1CC[C@H]3CC(=O)CC[C@]3(C)[C@H]1CC2 [Compound 12, (5S,8S,9S,10S,13S,14S)-10,13-dimethyltetradecahydro-1H-cyclopenta[a]phenanthren-3(2H)-one]
inhibition of hGOAT octanoylation activity (in words) [1]: loss of inhibition

C[C@@]12CCC[C@H]1[C@@H]1CC[C@H]3CC(=O)[C@H](Br)C[C@]3(C)[C@H]1CC2 [Compound 13, (2R,5S,8S,9S,10S,13S,14S)-2-bromo-10,13-dimethyltetradecahydro-1H-cyclopenta[a]phenanthren-3(2H)-one]
inhibition of hGOAT octanoylation activity (in words) [1]: unable to support inhibition

CC(C)CCC[C@@H](C)[C@H]1CC[C@H]2[C@@H]3CCC4=CC(=O)CC[C@]4(C)[C@H]3CC[C@]12C [Compound 14, (8S,9S,10R,13R,14S,17R)-10,13-dimethyl-17-((R)-6-methylheptan-2-yl)-6,7,8,9,10,11,12,13,14,15,16,17-dodecahydro-1H-cyclopenta[a]phenanthren-3(2H)-one]
inhibition of hGOAT octanoylation activity (in words) [1]: abrogates inhibition of hGOAT

N#CC1=CCCCC1=O [Compound 16, 6-oxocyclohex-1-enecarbonitrile]
IC50 ([1]; read-out: IC50, inhibition of hGOAT): 1200 ± 200 µM

O=C1CCCC=C1Br [Compound 17, 2-bromocyclohex-2-enone]
IC50 [1, 6]: 500 ± 100 µM

O=C1C=CCCC1 [Compound 18, cyclohexenone, reference compound]
inhibition of hGOAT activity (in words) ([1]; at concentrations up to 1 mM): does not inhibit hGOAT activity

CCN1C(=O)C=CC1=O [NEM, N-ethylmaleimide]
inhibition of hGOAT octanoylation activity (in words) [1]: efficiently inhibits hGOAT | reversibility of hGOAT inhibition [2]: classical irreversible hGOAT inhibition

CC1(C)CC[C@]2(C)CC=C3[C@]4(C)CC[C@H]5C(C)(C)[C@@H](O)CC[C@]5(C)[C@H]4CC[C@@]3(C)[C@@H]2C1 [Taraxerol, taraxerol, reference compound]
inhibition of hGOAT acylation activity (in words) ([1]; at concentrations up to 100 (unit not given)): fails to inhibit

CC1(C)CC[C@]2(C(=O)O)CC[C@]3(C)C(=CC[C@@H]4[C@@]5(C)CC[C@H](O)C(C)(C)[C@@H]5CC[C@]43C)[C@@H]2C1 [oleanic acid, reference compound]
inhibition of hGOAT activity (in words) ([1]; at concentrations up to 100 μM): negligible inhibition

C[C@H]1[C@H](C)CC[C@]2(C(=O)O)CC[C@]3(C)C(=CC[C@@H]4[C@@]5(C)CC[C@H](O)C(C)(C)[C@@H]5CC[C@]43C)[C@H]12 [ursolic acid, reference compound]
inhibition of hGOAT activity (in words) ([1]; at concentrations up to 100 μM): negligible inhibition
